pIC50: −log10 of the molar value.
Legend:
S. aureus ATCC 25923 = test: Agar-well diffusion antimicrobial screening; assay type: cell-based; conditions: Staphylococcus aureus, ATCC25923; 50 μL of DMSO stock (concentration in c1) per 5 mm well, 18 h at 35 °C; standard ampicillin 10 μg; read-out: Inhibition Zone Sa
P. aeruginosa ATCC 10145 = test: Agar-well diffusion antimicrobial screening; assay type: cell-based; conditions: Pseudomonas aeruginosa, ATCC10145; 50 μL of DMSO stock (concentration in c1) per 5 mm well, 18 h at 35 °C; standard ampicillin 10 μg; read-out: Inhibition Zone Pa
E. faecalis ATCC 29212 = test: Agar-well diffusion antimicrobial screening; assay type: cell-based; conditions: Enterococcus faecalis, ATCC29212; 50 μL of DMSO stock (concentration in c1) per 5 mm well, 18 h at 35 °C; standard ampicillin 10 μg; read-out: Inhibition Zone Ef
[1] = system: Y. pseudotuberculosis ATCC 911; test: microbe, parasite or virus in culture; assay type: cell-based; conditions: Yersinia pseudotuberculosis, ATCC911, 18 h, read-out: Inhibition Zone Yp
E. coli ATCC 35218 = test: Agar-well diffusion antimicrobial screening; assay type: cell-based; conditions: Escherichia coli, ATCC35218, 18 h, read-out: Inhibition Zone Ec
B. cereus 709 Roma = test: Agar-well diffusion antimicrobial screening; assay type: cell-based; conditions: Bacillus cereus, 50 μL of DMSO stock (concentration in c1) per 5 mm well, 18 h at 35 °C, standard ampicillin 10 μg, read-out: Inhibition Zone Bc
S. cerevisiae RSKK 251 = test: Agar-well diffusion antimicrobial screening; assay type: cell-based, Saccharomyces cerevisiae
[2] = DPPH radical scavenging assay; conditions: 0.1 mM methanolic DPPH, 30 min in the dark, 517 nm; mean ± S.D., triplicate
Protocol: Some 1,2,3-triazole compounds are known to act either as inhibitors of free radical production or as radical scavengers. Therefore, the potential antioxidant property of the new 1,2,3-trizole compounds was evaluated by determining their DPPH and SOD radical scavenging ability. DPPH is a stable free radical that accepts an electron or hydrogen radical to become a stable species. Due to its odd electron, DPPH gives a strong absorption band at 517 nm. Antioxidants are suitable reducing agents and neutralize the free radicals by pairing the DPPH odd electron with a hydrogen atom, and the DPPH solution turns yellow, observed as the decrease in absorbance at 517 nm.
The compounds were tested for in vitro antioxidant activities by the 2,2-diphenyl-1-picrylhydrazyl (DPPH) free radical scavenging assay method. The total volume of the assay mixtures containing methanolic DPPH solution (0.1 mM) and different concentrations of samples was 1 mL. After incubation in the dark at room temperature for 30 min., absorbance of the samples (Asample) was measured at 517 nm. Assay mixture without compound was used as control (control absorbance, Acontrol). All experiments were carried out in triplicate and results were expressed as the mean ±standard deviation (S.D.). Butylatedhydroxyanisole (BHA) were used as the reference compound. Free radical scavenging effect was calculated using Equation (1).

[3] = Superoxide radical scavenging assay (NBT photo reduction method); conditions: pH 7.8, 30 °C, 10 min, 560 nm, mean ± S.D., triplicate
Protocol: Superoxide scavenging activity of the compounds and reference were tested in a non-enzymatic superoxide radical (O2^−•) generation assay using a modified spectrophotometrical nitro blue tetrazolium (NBT) photo reduction method. The total volume of the assay mixtures containing riboflavin (2 μM), methionine (13 mM), NBT ([…]), EDTA (0.1 mM), and the test samples (50 mM phosphate buffer, pH = 7.8) was 1 mL. After illuminating with a fluorescent lamp at 30 °C for 10 min., the absorbance of the samples (Asample) was measured at 560 nm. Assay mixture without the compound was used as control (control absorbance, Acontrol). All experiments were carried out in triplicate and results were expressed as the mean ± standard deviation (S.D.). Free O2^−• radical scavenging effect was calculated using Equation (1).

[4] = target: T1, Electric eel acetyl-cholinesterase enzyme (AchE, Type-VI-S; EC 3.1.1.7) (Electrophorus electricus, UniProt O42275); test: biochemical; conditions: mean ± S.D. of three independent experiments; Tris-HCl pH 8.00, 412 nm
T1 construct: purchased Sigma-Aldrich Type-VI-S
T1 sequence (O42275 24-633): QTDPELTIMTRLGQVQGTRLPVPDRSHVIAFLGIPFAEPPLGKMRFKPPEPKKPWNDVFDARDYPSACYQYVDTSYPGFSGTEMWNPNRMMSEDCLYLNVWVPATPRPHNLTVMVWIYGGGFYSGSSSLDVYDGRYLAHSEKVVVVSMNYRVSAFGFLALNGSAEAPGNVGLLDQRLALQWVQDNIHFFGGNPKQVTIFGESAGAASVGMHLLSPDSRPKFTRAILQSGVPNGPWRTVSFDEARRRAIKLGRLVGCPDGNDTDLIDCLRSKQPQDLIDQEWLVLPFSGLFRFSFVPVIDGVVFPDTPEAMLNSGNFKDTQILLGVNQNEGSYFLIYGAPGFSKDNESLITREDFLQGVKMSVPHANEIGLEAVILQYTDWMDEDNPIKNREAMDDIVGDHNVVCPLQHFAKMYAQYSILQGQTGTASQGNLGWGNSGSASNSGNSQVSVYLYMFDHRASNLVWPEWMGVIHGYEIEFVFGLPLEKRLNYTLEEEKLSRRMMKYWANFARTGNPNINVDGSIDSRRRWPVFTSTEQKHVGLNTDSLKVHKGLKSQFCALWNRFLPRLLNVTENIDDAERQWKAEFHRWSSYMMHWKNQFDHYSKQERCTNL
Protocol: Firstly, all of the compounds stock solution in DMF (1 × 10^−3 M) were prepared and then five different concentrations were prepared from stock solution in buffer (Tris-HCI pH 8.00) for experiments. Briefly 50 µL of 50 mM Tris-HCl buffer (pH 8.00), 125 µL of 3 mM DTNB (in buffer), 25 µL of 0.2 U/mL AChE and 25 µL of sample dissolved in buffer and incubated for 15 min. at 25 °C. Fifteen minutes later, 25 µL of 15 mM acetyl thiocholine iodide were added and incubated 5 min. at room temperature. The reaction was initiated by the addition of acetylcholine iodide. The hydrolysis of this substrate was monitored by the formation of the yellow 5-thio-2-nitrobenzoate anion as a result of the reaction DTNB with thiocholine, catalized by enzyme at a wave length of 412 nm using a 96-well microplate reader (Multiskan Go UV-spectrophotometer, Thermo Fisher Scientific Oy Ratastie 2, Vantaa, Finland).
Inhibition of AChE was calculated by the comparison of reaction rates of the samples relative to the blank sample (DMF in phosphate buffer pH = 8) using the Equation (1) where Acontrol is the activity of enzyme without test sample and Asample is the activity of enzyme with test sample: (1) Scavenging effects (%)=[(Acontrol−Asample)/Acontrol]×100
The experiments were carried out in triplicate and IC50 values were examined.

C. albicans ATCC 60193 = test: Agar-well diffusion antimicrobial screening; assay type: cell-based, Candida albicans; conditions: Candida albicans, ATCC60193, 18 h, read-out: Inhibition Zone Ca
M. smegmatis ATCC607 = test: Agar-well diffusion antimicrobial screening; assay type: cell-based, Mycobacterium smegmatis; conditions: Mycolicibacterium smegmatis, ATCC607, 72 h; 50 μL of DMSO stock (concentration in c1) per 5 mm well, BHI agar, 3 days at 35 °C; standard streptomycin 10 µg; read-out: Inhibition Zone Ms

Which results are given for `CC1(C)S[C@@H]2[C@H](NC(=O)[C@H](N)c3ccccc3)C(=O)N2[C@H]1C(=O)O` [Amp, Ampicillin]?
zone of inhibition at 10 µg/disc (S. aureus ATCC 25923): 10 mm; zone of inhibition at 10 µg/disc (P. aeruginosa ATCC 10145): 18 mm; zone of inhibition at 10 µg/disc (E. faecalis ATCC 29212): 35 mm; zone of inhibition at 10 µg/disc [1]: 10 mm; zone of inhibition at 10 µg/disc (E. coli ATCC 35218): 10 mm; zone of inhibition at 10 µg/disc (B. cereus 709 Roma): 15 mm

Which “Inhibition Zone Sc” value (S. cerevisiae RSKK 251) does the source give for `COc1cc(C(C)=O)ccc1OCc1cn(CCCCCCn2cc(COc3ccc(C(C)=O)cc3OC)nn2)nn1` [Compound 3d, 1-(4-((1-(6-(4-((4-Acetyl-2-methoxyphenoxy)methyl)-1H-1,2,3-triazol-1-yl)hexyl)-1H-1,2,3-triazol-4-yl)-methoxy)-2-methoxyphenyl)ethan-1-onen] here?
Its value is “-”.

What about the “DPPH IC50” value [2] of the same compound?
Its value is 149.21 (±0.06) µg/mL.

What about the “SOD IC50” value [3] of the same compound?
The value was 128.24 (±0.10) µg/mL.

What about the pIC50 [4] of the same compound?
The pIC50 was 4.12.

With `OC(Cn1cncn1)(Cn1cncn1)c1ccc(F)cc1F` [Flu., Fluconazole, reference compound] as the compound, how does the zone of inhibition at 5 µg/disc (S. cerevisiae RSKK 251; Saccharomyces cerevisiae, RSKK251, 50 μL of DMSO stock (concentration in c1) per 5 mm well, 18 h at 35 °C, standard fluconazole 5 μg, read-out: Inhibition Zone Sc) read?
Its zone of inhibition at 5 µg/disc is 25 mm.

And the zone of inhibition at 5 µg/disc (C. albicans ATCC 60193)?
Its zone of inhibition at 5 µg/disc is 25 mm.

Which zone of inhibition at 10 µg/disc (M. smegmatis ATCC607) does the source give for `[H]/N=C(/N)N[C@H]1[C@H](O)[C@@H](O)[C@H](O[C@@H]2O[C@@H](C)[C@](O)(C=O)[C@H]2O[C@@H]2O[C@@H](CO)[C@H](O)[C@@H](O)[C@@H]2NC)[C@@H](N/C(N)=N\[H])[C@@H]1O` [Strep, Streptomycin] here?
The zone of inhibition at 10 µg/disc was 35 mm.
